Experimental data: US11432573B2, “Food and beverage sweeteners” (priority 2017, dated 2022)

Test: Serum glucose levels in subjects after consuming coffee with sweetener blend or sucrose (Example 1)
Assay type: in vivo, human
Settings: for serum glucose (Average): average across three subjects
Experimental: The following Example summarizes the impact of the above-listed formulas on serum glucose levels within three different subjects. Specifically, 6.0 grams of a blend of Formula-1 through Formula-5 (above) were stirred vigorously into one shot of regular caffeinated expresso coffee that was topped to 350 milliliters of warm water. The coffee was then completely consumed by each subject within 5 minutes, following a time=0 measurement of each subject's serum glucose levels. Each subject's serum glucose levels were subsequently measured at 15 minute intervals, up to 100 minutes following the time=0 measurement. The impact of traditional sucrose on each of the subject's serum glucose levels was also measured, so that the impact of the test sweetener composition on serum glucose levels could be measured relative to such impact by traditional sucrose. The following Tables summarize the serum glucose level measurements observed with each subject (Table-1, Table-2, and Table-3), along with the average across each of the three subjects (Table-4)(the data represent mmol/L serum glucose).

OC[C@H]1O[C@@](CO)(O[C@H]2O[C@H](CO)[C@@H](O)[C@H](O)[C@H]2O)[C@@H](O)[C@@H]1O [Sucrose, sucrose] showed a serum glucose (Subject 1, T = 0 (before consumption)) of 5.20 mmol/L, a serum glucose (Subject 1, T = 15 minutes) of 6.20 mmol/L and a serum glucose (Subject 1, T = 30 minutes) of 7.60 mmol/L. The serum glucose (Subject 1, T = 45 minutes) was 7.60 mmol/L, the serum glucose (Subject 1, T = 60 minutes) was 7.00 mmol/L and the serum glucose (Subject 1, T = 75 minutes) was 6.20 mmol/L. The serum glucose (Subject 1, T = 100 minutes) was 6.00 mmol/L, the serum glucose (Subject 2, T = 0 (before consumption)) was 5.10 mmol/L and the serum glucose (Subject 2, T = 15 minutes) was 6.00 mmol/L. The serum glucose (Subject 2, T = 30 minutes) was 7.50 mmol/L, the serum glucose (Subject 2, T = 45 minutes) was 7.40 mmol/L and the serum glucose (Subject 2, T = 60 minutes) was 7.00 mmol/L. For the same molecule, the serum glucose (Subject 2, T = 75 minutes) was 6.00 mmol/L, the serum glucose (Subject 2, T = 100 minutes) was 5.60 mmol/L and the serum glucose (Subject 3, T = 0 (before consumption)) was 5.20 mmol/L. It also gave a serum glucose (Subject 3, T = 15 minutes) of 5.60 mmol/L, a serum glucose (Subject 3, T = 30 minutes) of 7.70 mmol/L and a serum glucose (Subject 3, T = 45 minutes) of 7.80 mmol/L. The serum glucose (Subject 3, T = 60 minutes) was 7.40 mmol/L, the serum glucose (Subject 3, T = 75 minutes) was 6.40 mmol/L and the serum glucose (Subject 3, T = 100 minutes) was 6.20 mmol/L. For the same molecule, the “serum glucose (Average)” value (T = 0 (before consumption)) was 5.17 mmol/L, the “serum glucose (Average)” value (T = 15 minutes) was 5.93 mmol/L and the “serum glucose (Average)” value (T = 30 minutes) was 7.60 mmol/L. For the same molecule, the “serum glucose (Average)” value (T = 45 minutes) was 7.60 mmol/L, the “serum glucose (Average)” value (T = 60 minutes) was 7.13 mmol/L and the “serum glucose (Average)” value (T = 75 minutes) was 6.20 mmol/L. The “serum glucose (Average)” value (T = 100 minutes) was 5.93 mmol/L.
